Experiments:
Assay in all cases: Kinase inhibitor library screening, PrestoBlue cell viability, 1 or 10 μM, 72 h
[1] = test system: A375 cells (parental); settings: A375 Parental; for cell viability (kinase inhibitor library screening) / cell viability, A375 Parental, 1μΜ / cell viability, A375 Parental, 10μΜ: in %; for cell viability, A375 Parental, 1μΜ / cell viability, A375 Parental, 10μΜ / Cell viability in kinase inhibitor library screening, A375 Parental, 1μΜ / Cell viability in kinase inhibitor library screening, A375 Parental, 10μΜ: 72 h
[2] = test system: 501Mel cells (parental); settings: 501Mel Parental, in %
Summary of the method: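 Kinase inhibitors added at two fixed concentrations; 72 h exposure; PrestoBlue readout; % viability vs untreated; n ≥ 2 per line.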

[3] = test system: IGR37-XP cells (Vemurafenib-resistant); settings: IGR37 XP; for cell viability (kinase inhibitor library screening) / cell viability, IGR37 XP, 1μΜ / Cell viability in kinase inhibitor library screening, IGR37 XP, 1μΜ: in %; for cell viability, IGR37 XP, 10μΜ / cell viability, IGR37 XP, 1μΜ / Cell viability in kinase inhibitor library screening, IGR37 XP, 10μΜ / Cell viability in kinase inhibitor library screening, IGR37 XP, 1μΜ: 72 h
[4] = test system: 501Mel-GP cells (Dabrafenib-resistant); settings: 501Mel GP, in %; for cell viability, 501Mel GP, 1μΜ / cell viability, 501Mel GP, 10μΜ / Cell viability in kinase inhibitor library screening, 501Mel GP, 1μΜ / Cell viability in kinase inhibitor library screening, 501Mel GP, 10μΜ: 72 h
[5] = test system: IGR37-GP cells (Dabrafenib-resistant); settings: IGR37 GP; for cell viability (kinase inhibitor library screening) / cell viability, IGR37 GP, 1μΜ / Cell viability in kinase inhibitor library screening, IGR37 GP, 1μΜ: in %; for cell viability, IGR37 GP, 10μΜ / cell viability, IGR37 GP, 1μΜ / Cell viability in kinase inhibitor library screening, IGR37 GP, 10μΜ / Cell viability in kinase inhibitor library screening, IGR37 GP, 1μΜ: 72 h
[6] = test system: IGR37 cells (parental); settings: IGR37 Parental, in %; for cell viability, IGR37 Parental, 1μΜ / cell viability, IGR37 Parental, 10μΜ / Cell viability in kinase inhibitor library screening, IGR37 Parental, 1μΜ / Cell viability in kinase inhibitor library screening, IGR37 Parental, 10μΜ: 72 h
[7] = test system: A375-XP cells (Vemurafenib-resistant); settings: A375 XP
[8] = test system: 501Mel-XP cells (Vemurafenib-resistant); settings: 501Mel XP, in %
[9] = test system: A375-GP cells (Dabrafenib-resistant); settings: A375 GP; for cell viability (kinase inhibitor library screening) / cell viability, A375 GP, 1μΜ / cell viability, A375 GP, 10μΜ: in %; for cell viability, A375 GP, 1μΜ / cell viability, A375 GP, 10μΜ / Cell viability in kinase inhibitor library screening, A375 GP, 10μΜ / Cell viability in kinase inhibitor library screening, A375 GP, 1μΜ: 72 h

SMILES: C[C@@H](N)[C@H]1CC[C@H](C(=O)Nc2ccncc2)CC1.Cl.Cl [Y-27632 2HCl]
- cell viability (kinase inhibitor library screening) ([1]; 10μΜ): 91.8
- cell viability (kinase inhibitor library screening) ([2]; 1μΜ): 96.3
- cell viability (kinase inhibitor library screening) ([3]; 1μΜ): 97.8
- cell viability (kinase inhibitor library screening) ([3]; 10μΜ): 70.6
- cell viability (kinase inhibitor library screening) ([4]; 10μΜ): 87.8
- cell viability (kinase inhibitor library screening) ([5]; 1μΜ): 98.0
- cell viability (kinase inhibitor library screening) ([5]; 10μΜ): 91.2
- cell viability (kinase inhibitor library screening) ([6]; 10μΜ): 97.4
- cell viability (kinase inhibitor library screening) ([7]; 1μΜ, in %): 103.7
- cell viability (kinase inhibitor library screening) ([7]; 10μΜ, in %): 107.2
- cell viability (kinase inhibitor library screening) ([8]; 1μΜ): 90.1
- cell viability (kinase inhibitor library screening) ([8]; 10μΜ): 88.2
- cell viability (kinase inhibitor library screening) ([9]; 1μΜ): 97.3
- cell viability (kinase inhibitor library screening) ([9]; 10μΜ): 96.3

SMILES: Cc1nc(Nc2ncc(C(=O)Nc3c(C)cccc3Cl)s2)cc(N2CCN(CCO)CC2)n1 [Dasatinib (BMS-354825)]
- cell viability (kinase inhibitor library screening) ([1]; 1μΜ): 68.7
- cell viability (kinase inhibitor library screening) ([1]; 10μΜ): 30.8
- cell viability (kinase inhibitor library screening) ([2]; 1μΜ): 91.7
- cell viability (kinase inhibitor library screening) ([2]; 10μΜ): 73.7
- cell viability (kinase inhibitor library screening) ([3]; 1μΜ): 88.2
- cell viability (kinase inhibitor library screening) ([3]; 10μΜ): 39.8
- cell viability (kinase inhibitor library screening) ([4]; 1μΜ): 96.7
- cell viability (kinase inhibitor library screening) ([4]; 10μΜ): 77.1
- cell viability (kinase inhibitor library screening) ([5]; 1μΜ): 91.4
- cell viability (kinase inhibitor library screening) ([5]; 10μΜ): 66.8
- cell viability (kinase inhibitor library screening) ([6]; 1μΜ): 98.7
- cell viability (kinase inhibitor library screening) ([6]; 10μΜ): 80.2
- cell viability (kinase inhibitor library screening) ([7]; 1μΜ, in %): 70.6
- cell viability (kinase inhibitor library screening) ([7]; 10μΜ, in %): 57.8
- cell viability (kinase inhibitor library screening) ([8]; 1μΜ): 88.2
- cell viability (kinase inhibitor library screening) ([8]; 10μΜ): 63.3
- cell viability (kinase inhibitor library screening) ([9]; 1μΜ): 63.7
- cell viability (kinase inhibitor library screening) ([9]; 10μΜ): 48.1

SMILES: O=c1cc(N2CCOCC2)oc2c(-c3cccc4c3sc3ccccc34)cccc12 [NU7441(KU-57788)]
- cell viability, A375 Parental, 1μΜ ([1]; 1μΜ): 98.8
- cell viability, A375 Parental, 10μΜ ([1]; 10μΜ): 52.7
- cell viability, 501Mel Parental, 10μΜ ([2]; 10μΜ, 72 h): 61.0
- cell viability, IGR37 XP, 10μΜ ([3]; 10μΜ): 20.1%
- cell viability, IGR37 XP, 1μΜ ([3]; 1μΜ): 99.7
- cell viability, 501Mel GP, 1μΜ ([4]; 1μΜ): 93.7
- cell viability, 501Mel GP, 10μΜ ([4]; 10μΜ): 32.9
- cell viability, IGR37 GP, 10μΜ ([5]; 10μΜ): 49.3%
- cell viability, IGR37 GP, 1μΜ ([5]; 1μΜ): 92.2
- cell viability, IGR37 Parental, 1μΜ ([6]; 1μΜ): 96.8
- cell viability, IGR37 Parental, 10μΜ ([6]; 10μΜ): 98.9
- cell viability, A375 XP, 1μΜ ([7]; 1μΜ, 72 h, in %): 98.6
- cell viability, A375 XP, 10μΜ ([7]; 10μΜ, 72 h, in %): 55.7
- cell viability, 501Mel XP, 10μΜ ([8]; 10μΜ, 72 h): 10.9
- cell viability, A375 GP, 1μΜ ([9]; 1μΜ): 92.7
- cell viability, A375 GP, 10μΜ ([9]; 10μΜ): 47.4

SMILES: C=CC(=O)Nc1cc2c(Nc3ccc(F)c(Cl)c3)ncnc2cc1OCCCN1CCOCC1 [CI-1033 (Canertinib)]
- cell viability, A375 Parental, 1μΜ ([1]; 1μΜ): 105.5
- cell viability, A375 Parental, 10μΜ ([1]; 10μΜ): 24.5
- cell viability, 501Mel Parental, 1μΜ ([2]; 1μΜ, 72 h): 103.3
- cell viability, 501Mel Parental, 10μΜ ([2]; 10μΜ, 72 h): 35.1
- cell viability, IGR37 XP, 10μΜ ([3]; 10μΜ): 23.7%
- cell viability, IGR37 XP, 1μΜ ([3]; 1μΜ): 99.0
- cell viability, 501Mel GP, 1μΜ ([4]; 1μΜ): 102.8
- cell viability, 501Mel GP, 10μΜ ([4]; 10μΜ): 1.4
- cell viability, IGR37 GP, 10μΜ ([5]; 10μΜ): 30.7%
- cell viability, IGR37 GP, 1μΜ ([5]; 1μΜ): 92.4
- cell viability, IGR37 Parental, 1μΜ ([6]; 1μΜ): 98.8
- cell viability, IGR37 Parental, 10μΜ ([6]; 10μΜ): 53.7
- cell viability, A375 XP, 10μΜ ([7]; 10μΜ, 72 h, in %): 15.2
- cell viability, 501Mel XP, 1μΜ ([8]; 1μΜ, 72 h): 93.9
- cell viability, 501Mel XP, 10μΜ ([8]; 10μΜ, 72 h): 0.248
- cell viability, A375 GP, 1μΜ ([9]; 1μΜ): 99.4
- cell viability, A375 GP, 10μΜ ([9]; 10μΜ): 23.3

SMILES: CCn1c(=O)c(-c2cc[nH]n2)cc2c(C)nc(N)nc21 [XL765]
- Cell viability in kinase inhibitor library screening, A375 Parental, 1μΜ ([1]; 1μΜ): 105.9
- Cell viability in kinase inhibitor library screening, 501Mel Parental, 1μΜ ([2]; 1μΜ, 72 h): 93.5
- Cell viability in kinase inhibitor library screening, 501Mel Parental, 10μΜ ([2]; 10μΜ, 72 h): 98.4
- Cell viability in kinase inhibitor library screening, IGR37 XP, 10μΜ ([3]; 10μΜ): 68.4%
- Cell viability in kinase inhibitor library screening, 501Mel GP, 1μΜ ([4]; 1μΜ): 109.6
- Cell viability in kinase inhibitor library screening, 501Mel GP, 10μΜ ([4]; 10μΜ): 92.1
- Cell viability in kinase inhibitor library screening, IGR37 GP, 10μΜ ([5]; 10μΜ): 96.8%
- Cell viability in kinase inhibitor library screening, IGR37 GP, 1μΜ ([5]; 1μΜ): 95.1
- Cell viability in kinase inhibitor library screening, IGR37 Parental, 1μΜ ([6]; 1μΜ): 100.4
- Cell viability in kinase inhibitor library screening, IGR37 Parental, 10μΜ ([6]; 10μΜ): 106.2
- Cell viability in kinase inhibitor library screening, A375 XP, 1μΜ ([7]; 1μΜ, 72 h): 106.1
- Cell viability in kinase inhibitor library screening, 501Mel XP, 1μΜ ([8]; 1μΜ, 72 h): 96.7
- Cell viability in kinase inhibitor library screening, 501Mel XP, 10μΜ ([8]; 10μΜ, 72 h): 77.0
- Cell viability in kinase inhibitor library screening, A375 GP, 10μΜ ([9]; 10μΜ): 92.4

SMILES: O=C(Nc1cccc(Nc2ncc(Br)c(NCCc3cnc[nH]3)n2)c1)N1CCCC1 [BX-912]
- Cell viability in kinase inhibitor library screening, A375 Parental, 10μΜ ([1]; 10μΜ): 34.9
- Cell viability in kinase inhibitor library screening, A375 Parental, 1μΜ ([1]; 1μΜ): 92.0
- Cell viability in kinase inhibitor library screening, 501Mel Parental, 1μΜ ([2]; 1μΜ, 72 h): 93.6
- Cell viability in kinase inhibitor library screening, 501Mel Parental, 10μΜ ([2]; 10μΜ, 72 h): 63.6
- Cell viability in kinase inhibitor library screening, IGR37 XP, 10μΜ ([3]; 10μΜ): 16.7%
- Cell viability in kinase inhibitor library screening, IGR37 XP, 1μΜ ([3]; 1μΜ): 94.7
- Cell viability in kinase inhibitor library screening, 501Mel GP, 1μΜ ([4]; 1μΜ): 99.2
- Cell viability in kinase inhibitor library screening, 501Mel GP, 10μΜ ([4]; 10μΜ): 59.6
- Cell viability in kinase inhibitor library screening, IGR37 GP, 10μΜ ([5]; 10μΜ): 55.1%
- Cell viability in kinase inhibitor library screening, IGR37 Parental, 1μΜ ([6]; 1μΜ): 91.9
- Cell viability in kinase inhibitor library screening, IGR37 Parental, 10μΜ ([6]; 10μΜ): 65.1
- Cell viability in kinase inhibitor library screening, A375 XP, 1μΜ ([7]; 1μΜ, 72 h): 88.9
- Cell viability in kinase inhibitor library screening, A375 XP, 10μΜ ([7]; 10μΜ, 72 h): 36.6
- Cell viability in kinase inhibitor library screening, 501Mel XP, 1μΜ ([8]; 1μΜ, 72 h): 89.5
- Cell viability in kinase inhibitor library screening, 501Mel XP, 10μΜ ([8]; 10μΜ, 72 h): 48.6
- Cell viability in kinase inhibitor library screening, A375 GP, 1μΜ ([9]; 1μΜ): 87.6
- Cell viability in kinase inhibitor library screening, A375 GP, 10μΜ ([9]; 10μΜ): 38.0

SMILES: COc1cc(OC)c(/C=C/S(=O)(=O)Cc2ccc(OC)c(NCC(=O)O)c2)c(OC)c1 [Rigosertib (ON-01910)]
- Cell viability in kinase inhibitor library screening, A375 Parental, 10μΜ ([1]; 10μΜ): 15.2
- Cell viability in kinase inhibitor library screening, A375 Parental, 1μΜ ([1]; 1μΜ): 18.2
- Cell viability in kinase inhibitor library screening, 501Mel Parental, 1μΜ ([2]; 1μΜ, 72 h): 20.3
- Cell viability in kinase inhibitor library screening, 501Mel Parental, 10μΜ ([2]; 10μΜ, 72 h): 26.0
- Cell viability in kinase inhibitor library screening, IGR37 XP, 10μΜ ([3]; 10μΜ): 35.5%
- Cell viability in kinase inhibitor library screening, IGR37 XP, 1μΜ ([3]; 1μΜ): 55.9
- Cell viability in kinase inhibitor library screening, 501Mel GP, 1μΜ ([4]; 1μΜ): 16.6
- Cell viability in kinase inhibitor library screening, 501Mel GP, 10μΜ ([4]; 10μΜ): 20.3
- Cell viability in kinase inhibitor library screening, IGR37 GP, 10μΜ ([5]; 10μΜ): 61.1%
- Cell viability in kinase inhibitor library screening, IGR37 GP, 1μΜ ([5]; 1μΜ): 62.5
- Cell viability in kinase inhibitor library screening, IGR37 Parental, 1μΜ ([6]; 1μΜ): 11.0
- Cell viability in kinase inhibitor library screening, IGR37 Parental, 10μΜ ([6]; 10μΜ): 15.4
- Cell viability in kinase inhibitor library screening, A375 XP, 1μΜ ([7]; 1μΜ, 72 h): 18.3
- Cell viability in kinase inhibitor library screening, A375 XP, 10μΜ ([7]; 10μΜ, 72 h): 9.8
- Cell viability in kinase inhibitor library screening, 501Mel XP, 1μΜ ([8]; 1μΜ, 72 h): 9.5
- Cell viability in kinase inhibitor library screening, 501Mel XP, 10μΜ ([8]; 10μΜ, 72 h): 14.7
- Cell viability in kinase inhibitor library screening, A375 GP, 1μΜ ([9]; 1μΜ): 19.7
- Cell viability in kinase inhibitor library screening, A375 GP, 10μΜ ([9]; 10μΜ): 16.9

From publication PMC6364417, “Kinase inhibitor library screening identifies synergistic drug combinations effective in sensitive and resistant melanoma cells” (Journal of Experimental & Clinical Cancer Research : CR, 2019)
